37 compounds from patent US9221808B2, “Pyridylthiazole-based ureas as inhibitors of Rho associated protein kinase (ROCK) and methods of use” (H. Lee Moffitt Cancer Center and Research Institute, Inc., priority 2010, dated 2015) can be followed below.

One assay deals with ROCK1 (Homo sapiens (Human), UniProt Q13464). Put plainly: FRET-based Z'-Lyte kinase assay, ROCK1.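 On all read-outs here: kinase phosphorylates a coumarin/fluorescein-labelled FRET peptide, then a protease cleaves unphosphorylated peptide, progress read as donor to acceptor emission ratio after 400 nm excitation.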 To be noted: for IC50: read-out: IC50 ± SD (μM) ROCK1; for fold decrease in ROCK1 activity/potency compared to parent compound 1aa: comparator 1aa; for fold decrease in activity compared to 1bo: comparator 1bo (comparator for 1bn not stated). Type of assay: biochemical.
Sequence of ROCK1 (Q13464 whole entry, species assumed): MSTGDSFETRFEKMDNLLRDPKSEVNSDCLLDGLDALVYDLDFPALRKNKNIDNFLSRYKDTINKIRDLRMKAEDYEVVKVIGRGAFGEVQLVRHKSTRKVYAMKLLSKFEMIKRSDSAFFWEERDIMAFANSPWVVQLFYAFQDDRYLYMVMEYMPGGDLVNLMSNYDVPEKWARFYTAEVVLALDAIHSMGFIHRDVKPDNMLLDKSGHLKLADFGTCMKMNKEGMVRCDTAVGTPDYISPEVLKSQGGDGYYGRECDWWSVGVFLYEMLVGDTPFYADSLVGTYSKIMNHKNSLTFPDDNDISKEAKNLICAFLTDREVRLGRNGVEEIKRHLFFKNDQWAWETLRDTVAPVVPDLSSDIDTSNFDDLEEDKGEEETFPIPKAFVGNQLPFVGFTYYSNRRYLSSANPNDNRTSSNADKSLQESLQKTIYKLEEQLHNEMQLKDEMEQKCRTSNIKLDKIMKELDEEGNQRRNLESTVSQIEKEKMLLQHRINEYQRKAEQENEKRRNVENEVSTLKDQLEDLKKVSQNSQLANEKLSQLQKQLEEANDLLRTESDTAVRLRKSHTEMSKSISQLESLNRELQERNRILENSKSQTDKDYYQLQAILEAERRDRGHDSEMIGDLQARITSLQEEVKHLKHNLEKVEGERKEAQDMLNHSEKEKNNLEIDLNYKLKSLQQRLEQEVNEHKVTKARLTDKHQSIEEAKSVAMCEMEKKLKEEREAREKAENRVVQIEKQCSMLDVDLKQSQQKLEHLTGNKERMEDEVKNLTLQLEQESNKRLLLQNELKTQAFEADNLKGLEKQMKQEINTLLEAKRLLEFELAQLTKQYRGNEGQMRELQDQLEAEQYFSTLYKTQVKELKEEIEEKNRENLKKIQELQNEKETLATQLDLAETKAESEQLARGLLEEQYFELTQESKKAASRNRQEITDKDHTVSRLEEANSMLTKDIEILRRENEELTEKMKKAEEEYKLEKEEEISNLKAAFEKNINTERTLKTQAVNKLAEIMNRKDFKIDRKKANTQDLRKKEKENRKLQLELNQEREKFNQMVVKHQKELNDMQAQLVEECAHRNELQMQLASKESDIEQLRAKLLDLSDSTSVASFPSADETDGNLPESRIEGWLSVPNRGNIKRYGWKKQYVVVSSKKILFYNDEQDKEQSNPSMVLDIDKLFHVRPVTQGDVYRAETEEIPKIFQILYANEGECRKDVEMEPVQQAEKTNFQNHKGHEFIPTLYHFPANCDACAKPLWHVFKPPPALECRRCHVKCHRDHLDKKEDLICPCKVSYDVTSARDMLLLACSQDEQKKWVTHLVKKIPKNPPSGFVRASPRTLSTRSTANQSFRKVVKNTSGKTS
The next assay concerns the target ROCK2 (Homo sapiens (Human), UniProt O75116). Put plainly: FRET-based Z'-Lyte kinase assay, ROCK2.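 Further: kinase phosphorylates a coumarin/fluorescein FRET peptide, then a protease cleaves unphosphorylated peptide, read as donor/acceptor emission ratio after 400 nm excitation.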 Type of assay: biochemical. To be noted: read-out: IC50 ± SD (μM) ROCK2.

For orientation: IC50 means the concentration needed to halve the response being measured.

Counter-ions that a name gives are not always drawn.

Sequence of ROCK2 (O75116 whole entry, species assumed): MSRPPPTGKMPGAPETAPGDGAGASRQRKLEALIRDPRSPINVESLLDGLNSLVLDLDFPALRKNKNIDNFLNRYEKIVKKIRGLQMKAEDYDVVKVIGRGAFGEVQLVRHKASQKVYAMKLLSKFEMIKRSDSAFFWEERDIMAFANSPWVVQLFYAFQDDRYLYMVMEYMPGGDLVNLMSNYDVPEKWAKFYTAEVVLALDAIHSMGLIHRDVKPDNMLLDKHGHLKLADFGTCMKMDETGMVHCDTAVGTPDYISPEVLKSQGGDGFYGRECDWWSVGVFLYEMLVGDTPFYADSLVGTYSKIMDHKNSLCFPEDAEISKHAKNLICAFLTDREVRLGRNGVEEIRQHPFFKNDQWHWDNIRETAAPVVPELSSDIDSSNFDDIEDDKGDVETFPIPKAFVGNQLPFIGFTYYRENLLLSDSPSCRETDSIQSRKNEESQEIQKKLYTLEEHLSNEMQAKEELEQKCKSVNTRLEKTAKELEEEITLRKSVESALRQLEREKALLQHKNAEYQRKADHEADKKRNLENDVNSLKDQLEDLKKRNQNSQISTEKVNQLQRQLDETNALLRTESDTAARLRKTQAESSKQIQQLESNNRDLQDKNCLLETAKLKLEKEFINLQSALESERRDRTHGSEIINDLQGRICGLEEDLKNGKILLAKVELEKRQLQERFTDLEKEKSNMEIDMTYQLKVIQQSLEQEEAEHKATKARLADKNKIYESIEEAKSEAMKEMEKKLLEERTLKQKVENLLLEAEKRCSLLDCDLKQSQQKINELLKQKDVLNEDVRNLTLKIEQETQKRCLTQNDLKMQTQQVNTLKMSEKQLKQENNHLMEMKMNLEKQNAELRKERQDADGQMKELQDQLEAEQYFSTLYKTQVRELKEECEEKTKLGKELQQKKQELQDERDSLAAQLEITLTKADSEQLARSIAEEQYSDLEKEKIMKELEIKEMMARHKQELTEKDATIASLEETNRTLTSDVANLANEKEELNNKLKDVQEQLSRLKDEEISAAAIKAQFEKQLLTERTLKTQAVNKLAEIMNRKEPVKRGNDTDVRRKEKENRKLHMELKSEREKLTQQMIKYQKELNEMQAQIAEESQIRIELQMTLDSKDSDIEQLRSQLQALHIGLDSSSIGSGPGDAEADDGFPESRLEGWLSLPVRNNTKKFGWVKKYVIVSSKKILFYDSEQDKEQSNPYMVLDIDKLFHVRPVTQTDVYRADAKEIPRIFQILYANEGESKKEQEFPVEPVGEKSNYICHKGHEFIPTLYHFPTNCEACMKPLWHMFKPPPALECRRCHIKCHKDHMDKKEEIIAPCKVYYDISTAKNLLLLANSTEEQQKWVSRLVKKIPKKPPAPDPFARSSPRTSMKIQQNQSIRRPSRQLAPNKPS
Text for ROCK1: (§1) A) In the primary reaction, the Rho kinases phosphorylates a single serine or threonine residue in a synthetic FRET-peptide. This FRET-peptide is doubly labeled with a fluorophore at each end—coumarin (the FRET donor) on one end and fluorescein (the FRET acceptor) on the other—and also contains a single phosphorylation site which either overlaps with or lies adjacent to the proteolytic site. B) In the secondary reaction, a site-specific protease recognizes and cleaves the non-phosphorylated FRET-peptide. Cleavage disrupts FRET between the donor and acceptor fluorophores on the FRET-peptide, whereas uncleaved, phosphorylated FRET-peptides maintain FRET. Kinases phosphorylated FRET-peptides cannot be cleaved by the protease. […] Cleavage disrupts FRET and causes a decrease in the fluorescein fluorescence signal and a strong increase in the coumarin fluorescence signal. Therefore the extension of the phosphprylation can be measured by FRET-signal remaining the protease reaction. The assay uses a ratiometric method, which calculates the ratio of donor emission to acceptor emission (the emission ratio) after excitation of the donor fluorophore at 400 nm, to quantitate reaction progress.
(§2) All compounds were systematically screened against ROCK1 and ROCK2.
Text for ROCK2: as §1, §2

With `O=C(NCc1ccncc1)Nc1nc(-c2ccncc2)cs1` [Compound 1aq, 1-(4-(Pyridin-4-yl)thiazol-2-yl)-3-(pyridin-4-ylmethyl)urea], the IC50 on ROCK1 is 2.07 ± 0.29 µM; on ROCK2 it was 1.47 ± 0.13 µM.

As to `CN(Cc1ccccc1)C(=O)Nc1nc(-c2ccncc2)cs1` [Compound 1au, 1-Benzyl-1-methyl-3-(4-(pyridin-4-yl)thiazol-2-yl)urea], the IC50 on ROCK1 worked out at 0.11 ± 0.003 µM; at ROCK2 it was 0.07 ± 0.015 µM.

Regarding `O=C(NCc1cccc2ccccc12)Nc1nc(-c2ccncc2)cs1` [Compound 1av, 1-(Naphthalen-1-ylmethyl)-3-(4-(pyridin-4-yl)thiazol-2-yl)urea], the results for the IC50 on ROCK1 and on ROCK2 were 1.1 ± 0.202 µM and 0.58 ± 0.218 µM, respectively.

In the case of `O=C(NCCc1ccccc1)Nc1nc(-c2ccncc2)cs1` [Compound 1aw, 1-Phenethyl-3-(4-(pyridin-4-yl)thiazol-2-yl)urea], on ROCK1, the “fold decrease in ROCK1 activity/potency compared to parent compound 1aa” value (shortened to “fold decrease in ROCK1 activity/potency”) is listed as 3 fold and the IC50 was determined as 0.48 ± 0.037 µM. The half-inhibitory concentration (IC50) on ROCK2 came to 0.38 ± 0.107 µM.

In the case of `O=C(NCc1ccc(O)cc1)Nc1nc(-c2ccncc2)cs1` [Compound 1ax, 1-(4-Hydroxybenzyl)-3-(4-(pyridin-4-yl)thiazol-2-yl)urea], the IC50 came to 0.38 ± 0.046 µM at ROCK1 and 0.14 ± 0.029 µM at ROCK2.

Take `Nc1cccc(CNC(=O)Nc2nc(-c3ccncc3)cs2)c1` [Compound 1ay, 1-(3-Aminobenzyl)-3-(4-(pyridin-4-yl)thiazol-2-yl)urea]: on ROCK1, the “fold decrease in activity compared to 1bo” value is 6 fold and the IC50 came out at 0.05 ± 0.009 µM. Besides, the IC50 on ROCK2 is 0.02 ± 0.008 µM.

In the case of `Cc1cccc(CNC(=O)Nc2nc(-c3ccncc3)cs2)c1` [Compound 1ba, 1-(3-Methylbenzyl)-3-(4-(pyridin-4-yl)thiazol-2-yl)urea], at ROCK1, the “fold decrease in ROCK1 activity/potency” value came to 3 fold and the IC50 is 0.46 ± 0.08 µM. Moreover, at ROCK2, the IC50 was found to be 0.12 ± 0.03 µM.

`COc1cccc(CNC(=O)Nc2nc(-c3ccncc3)cs2)c1OC` [Compound 1bc, 1-(2,3-Dimethoxybenzyl)-3-(4-(pyridin-4-yl)thiazol-2-yl)urea]: the IC50 at ROCK1 came out at 35.4 ± 6.78 µM; at ROCK2 it was 19.7 ± 2.94 µM.

In the case of `Cc1ccc(CNC(=O)Nc2nc(-c3ccncc3)cs2)cc1` [Compound 1bd, 1-(4-Methylbenzyl)-3-(4-(pyridin-4-yl)thiazol-2-yl)urea], the results for the IC50 at ROCK1 and on ROCK2 were 5.16 ± 0.51 µM and 2.05 ± 0.15 µM, respectively.

As to `CC[C@@H](NC(=O)Nc1nc(-c2ccncc2)cs1)c1ccccc1` [Compound 1be, (R)-1-(1-Phenylpropyl)-3-(4-(pyridin-4-yl)thiazol-2-yl)urea], the “fold decrease in ROCK1 activity/potency” value at ROCK1 worked out at 3.5 fold. Further, the “fold more potent/active than its enantiomer” value on ROCK1 (comparator: enantiomer (1ai for 1ah, 1bf for 1be)) turned out to be 745 fold. Besides, the IC50 was 0.09 ± 0.02 µM on ROCK1 and 0.03 ± 0.01 µM at ROCK2.

For the compound `CC[C@H](NC(=O)Nc1nc(-c2ccncc2)cs1)c1ccccc1` [Compound 1bf, (S)-1-(1-Phenylpropyl)-3-(4-(pyridin-4-yl)thiazol-2-yl)urea], the IC50 on ROCK1 turned out to be 52.2 ± 3.64 µM; on ROCK2, 22 ± 7.79 µM.

Take `COc1cccc([C@H](C)NC(=O)Nc2nc(-c3ccncc3)cs2)c1` [Compound 1bg, (S)-1-(1-(3-Methoxyphenyl)ethyl)-3-(4-(pyridin-4-yl)thiazol-2-yl)urea]: the IC50 at ROCK1 was 18.7 ± 2.09 µM; on ROCK2, 3.25 ± 0.96 µM.

Turning to `O=C(Nc1nc(-c2ccncc2)cs1)NC(c1ccccc1)c1ccccc1` [Compound 1bi, 1-Benzhydryl-3-(4-(pyridin-4-yl)thiazol-2-yl)urea], the “fold decrease in ROCK1 activity/potency” value at ROCK1 is recorded as 12 fold. In addition, the concentration for half-maximal inhibition (IC50) was 1.87 ± 0.54 µM on ROCK1 and 0.53 ± 0.1 µM on ROCK2.

For `COC[C@@H](NC(=O)Nc1nc(-c2ccncc2)cs1)c1ccccc1` [Compound 1bj, (S)-1-(2-Methoxy-1-phenylethyl)-3-(4-(pyridin-4-yl)thiazol-2-yl)urea], at ROCK1 (comparator 1at), the “fold loss of potency compared to 1at” value is on record as 3.5 fold. Further, the IC50 on ROCK1 was 0.07 ± 0.005 µM; at ROCK2 it was 0.03 ± 0.009 µM.

Take `COC[C@H](NC(=O)Nc1nc(-c2ccncc2)cs1)c1ccccc1` [Compound 1bk, (R)-1-(2-Methoxy-1-phenylethyl)-3-(4-(pyridin-4-yl)thiazol-2-yl)urea]: the half-maximal inhibitory concentration (IC50) on ROCK1 stood at 29.5 ± 3.28 µM; at ROCK2, 11.5 ± 1.24 µM.

As for `Nc1ccc(CNC(=O)Nc2nc(-c3ccncc3)cs2)cc1` [Compound 1bl, 1-(4-Aminobenzyl)-3-(4-(pyridin-4-yl)thiazol-2-yl)urea], the IC50 at ROCK1 came to 45.9 ± 5.15 µM; at ROCK2 it was 17.4 ± 3.79 µM.

As for `COCCOc1cccc(CNC(=O)Nc2nc(-c3ccncc3)cs2)c1` [Compound 1bm, 1-(3-(2-Methoxyethoxy)benzyl)-3-(4-(pyridin-4-yl)thiazol-2-yl)urea], the IC50 worked out at 0.5 ± 0.05 µM on ROCK1 and 0.24 ± 0.03 µM on ROCK2.

As to `O=C(NCc1cccc2[nH]ccc12)Nc1nc(-c2ccncc2)cs1` [Compound 1bn, 1-((1H-indol-4-yl)methyl)-3-(4-(pyridin-4-yl)thiazol-2-yl)urea], on ROCK1, the “fold decrease in activity compared to 1bo” value is given as 470 fold and the IC50 worked out at 37.8 ± 7.81 µM. The concentration for half-maximal inhibition (IC50) on ROCK2 was 31.1 ± 9.14 µM.

As to `O=C(NCc1ccccc1O)Nc1nc(-c2ccncc2)cs1` [Compound 1bp, 1-(2-Hydroxybenzyl)-3-(4-(pyridin-4-yl)thiazol-2-yl)urea], the IC50 at ROCK1 amounted to 0.62 ± 0.019 µM; at ROCK2, 0.28 ± 0.05 µM.

Take `CNc1cccc(CNC(=O)Nc2nc(-c3ccncc3)cs2)c1` [Compound 1bq, 1-(3-(Methylamino)benzyl)-3-(4-(pyridin-4-yl)thiazol-2-yl)urea]: the IC50 on ROCK1 was 0.47 ± 0.013 µM; on ROCK2, 0.24 ± 0.04 µM.

As to `O=C(NCc1cccc(OC(F)F)c1)Nc1nc(-c2ccncc2)cs1` [Compound 1bs, 1-(3-(Difluoromethoxy)benzyl)-3-(4-(pyridin-4-yl)thiazol-2-yl)urea], the results for the IC50 at ROCK1 and at ROCK2 were 0.92 ± 0.1 µM and 0.35 ± 0.08 µM, respectively.

Regarding `Cc1ccccc1CNC(=O)Nc1nc(-c2ccncc2)cs1` [Compound 1bt, 1-(2-Methylbenzyl)-3-(4-(pyridin-4-yl)thiazol-2-yl)urea], the IC50 turned out to be 0.15 ± 0.03 µM on ROCK1 and 0.12 ± 0.02 µM at ROCK2.

For `CC(C)Oc1cccc(CNC(=O)Nc2nc(-c3ccncc3)cs2)c1` [Compound 1bu, 1-(3-Isopropoxybenzyl)-3-(4-(pyridin-4-yl)thiazol-2-yl)urea], the half-maximal inhibitory concentration (IC50) on ROCK1 came out at 13 ± 1.38 µM; on ROCK2, 3.44 ± 0.87 µM.

`NC(=O)[C@H](NC(=O)Nc1nc(-c2ccncc2)cs1)c1ccccc1` [Compound 1bv, (R)-2-Phenyl-2-(3-(4-(pyridin-4-yl)thiazol-2-yl)ureido)acetamide]: the IC50 on ROCK1 turned out to be 3.7 ± 0.5 µM; at ROCK2, 2.1 ± 0.36 µM.

For `CCOc1cccc(CNC(=O)Nc2nc(-c3ccncc3)cs2)c1` [Compound 1bw, 1-(3-ethoxybenzyl)-3-(4-(pyridin-4-yl)thiazol-2-yl)urea], the IC50 on ROCK1 was found to be 2.14 ± 0.62 µM; on ROCK2 it was 0.29 ± 0.17 µM.

Regarding `CCCOc1cccc(CNC(=O)Nc2nc(-c3ccncc3)cs2)c1` [Compound 1bx, 1-(3-propoxybenzyl)-3-(4-(pyridin-4-yl)thiazol-2-yl)urea], the results for the IC50 on ROCK1 and on ROCK2 were 3.36 ± 1 µM and 0.68 ± 0.43 µM, respectively.

Turning to `COc1ccc([C@@H](C)NC(=O)Nc2nc(-c3ccncc3)cs2)cc1` [Compound 1bz, (R)-1-(1-(4-methoxyphenyl)ethyl)-3-(4-(pyridin-4-yl)thiazol-2-yl)urea], the values for the IC50 at ROCK1 and at ROCK2 were > 50 µM and 11.9 ± 4.69 µM, respectively.

Regarding `CC(NC(=O)Nc1nc(-c2ccncc2)cs1)c1cccc(F)c1` (centres unmarked) [Compound 1ca, 1-(1-(3-fluorophenyl)ethyl)-3-(4-(pyridin-4-yl)thiazol-2-yl)urea], the concentration for half-maximal inhibition (IC50) at ROCK1 worked out at 0.43 ± 0.13 µM; on ROCK2 it was 0.28 ± 0.13 µM.

In the case of `C[C@@H](NC(=O)Nc1nc(-c2ccncc2)cs1)c1cccc(Cl)c1` [Compound 1cb, (R)-1-(1-(3-chlorophenyl)ethyl)-3-(4-(pyridin-4-yl)thiazol-2-yl)urea], the results for the IC50 on ROCK1 and at ROCK2 were 0.55 ± 0.32 µM and 0.07 ± 0.02 µM, respectively.

`C[C@@H](NC(=O)Nc1nc(-c2ccncc2)cs1)c1cccc(F)c1` [Compound 1cc, (R)-1-(1-(3-fluorophenyl)ethyl)-3-(4-(pyridin-4-yl)thiazol-2-yl)urea]: the “fold less potent than 1ah” value on ROCK1 (comparator 1ah) is 3 fold. For the same compound, the concentration for half-maximal inhibition (IC50) came to 0.11 ± 0.01 µM on ROCK1 and 0.03 ± 0.01 µM on ROCK2.

For the compound `O=C(NCc1cc(F)cc(F)c1)Nc1nc(-c2ccncc2)cs1` [Compound 1cd, 1-(3,5-difluorobenzyl)-3-(4-(pyridin-4-yl)thiazol-2-yl)urea], the IC50 amounted to 4.07 ± 2.76 µM on ROCK1 and 0.96 ± 0.56 µM on ROCK2.

As for `C[C@H](NC(=O)Nc1nc(-c2ccncc2)cs1)c1cccc(F)c1` [Compound 1cf, (S)-1-(1-(3-fluorophenyl)ethyl)-3-(4-(pyridin-4-yl)thiazol-2-yl)urea], the 50% inhibitory concentration (IC50) at ROCK1 was determined as 30 ± 10 µM; at ROCK2, 11 ± 6.74 µM.

For `CS(=O)(=O)Nc1cccc(CNC(=O)Nc2nc(-c3ccncc3)cs2)c1` [Compound 1ch, N-(3-β3-(4-(pyridin-4-yl)thiazol-2-yl)ureido)methyl)phenyl)-methanesulfonamide hydrochloride], the half-maximal inhibitory concentration (IC50) was found to be 0.56 ± 0.1 µM at ROCK1 and 0.1 ± 0.03 µM on ROCK2.

As for `CC(=O)Nc1cccc(CNC(=O)Nc2nc(-c3ccncc3)cs2)c1` [Compound 1ci, N-(3-((3-(4-(pyridin-4-yl)thiazol-2yl)ureido)methyl)phenyl)acetamide hydrochloride], the IC50 on ROCK1 was 1.25 ± 0.21 µM; on ROCK2, 0.13 ± 0.02 µM.

Take `NC(=O)Nc1cccc(CNC(=O)Nc2nc(-c3ccncc3)cs2)c1` [Compound 1cj, hydrochloride]: the IC50 at ROCK1 amounted to 1.15 ± 0.39 µM; on ROCK2 it was 0.18 ± 0.04 µM.

As to `COc1ccc(CNC(=O)Nc2nc(-c3ccncc3)cs2)cc1OC` [Compound 1ck, 1-(3,4-Dimethoxybenzyl)-3-(4-(pyridin-4-yl)thiazol-2-yl)urea], the IC50 on ROCK1 is 45.1 ± 5.57 µM; on ROCK2, 25 ± 1.01 µM.

For `CC(C)(NC(=O)Nc1nc(-c2ccncc2)cs1)c1ccccc1` [Compound 1cl, 1-(2-Phenylpropan-2-yl)-3-(4-(pyridin-4-yl)thiazol-2-yl)urea], the half-maximal inhibitory concentration (IC50) at ROCK1 was 0.19 ± 0.04 µM; on ROCK2 it was 0.07 ± 0.02 µM.
